System: whole blood clot formation
Experiment: Ecarin-activated TEG hemostasis analysis of recalcified sodium-citrated samples taken before and after in vivo anticoagulation therapy
Design: species or system human
Conditions: 14b
Source text: One exemplary protocol utilizes a sample, e.g., sample 13, that is obtained from a subject prior to administration of the anticoagulation therapy. Another sample is obtained at a first time period following administration of an anticoagulation therapy such as a direct thrombin inhibitor therapy like bivalirudin, heparin or warfarin. Each sample may be obtained into sodium citrate.
The sodium-citrated samples are recalcified, and an additional reagent is provided such as a prothrombin activator such as ecarin. The hemostasis analyzer 10 is used to measure the time to initial clot formation, R. FIG. 13 illustrates data for a sample of subjects showing time to initial clot formation R before in vivo administration of the anticoagulation therapy and after in vivo administration of the anticoagulation therapy. FIGS. 14a and 14b illustrate tracings and, respectively, showing a typical set of hemostasis parameter data before in vivo administration of the anticoagulation therapy and after in vivo administration of the anticoagulation therapy. […] Importantly, there exists correlation between the delay in initial clot formation and the dosing of the anticoagulation therapy. […]

Substance: bivalirudin
- delay in onset of clot formation (time to initial clot formation R) (samples from subjects before vs after in vivo administration, recalcified citrated blood with ecarin, FIGS. 13, 14a): direct relationship to bivalirudin dosing
- rate of clot formation α, clot strength MA and lysis LY30 (tracings before and after in vivo administration, FIGS. 14a): within expected norms

Reference: patent US8076144B2, “Protocol for risk stratification of ischemic events and optimized individualized treatment” (Cora Healthcare, Inc., priority 1999, dated 2011)
